Measured values reported in patent US8906684B2, “Three dimensional cell patterned biopolymer scaffolds and methods of making the same” (The Regents of the University of California, priority 2002, dated 2014).

System: HepG2 cells
Assay type: cell-based
Conditions: HepG2, amounts used for photocrosslinking
Procedure: Cell culture and viability assays in the presence of photopolymerizing agents. HepG2 cells (American Type Culture Collection, Manassas, Va.) were cultured in 175 cm^2 flasks (Fisher, Springfield, N.J.) and were passaged preconfluency no more than 13 times. The cells were maintained in minimal essential medium (MEM; Gibco, Grand Island, N.Y.) supplemented with 5% fetal bovine serum, 100 ug/mL penicillin, and 100 ug/mL streptomycin and incubated at 5% CO2 and 37° C. The cells to be incorporated into hydrogels were added to the prepolymer solution containing initiator and were mixed gently prior to UV exposure.
In order to explore the effects of photoinitiator and UV exposure on cell death, individual components were tested in HepG2 cultures. 3.0×10^5 cells were seeded in six-well culture dishes and allowed to proliferate until near confluency. A solution of 300 mg/mL of 2,2-dimethyl-2-phenyl-acetophenone (Aldrich) in 1-vinyl-2-pyrrolidinone (Sigma) was added to MEM in concentrations of 0, 3, 5, and 10 ul/ml. […] Cell viability was measured by an Mi viability assay, which forms a purple precipitate by cleavage of the tetrazolium ring by mitochondrial dehydrogenase enzymes. […] The absorbance was measured at 570 nm with a SpectraMax Plus spectrophotometer (Molecular Devices, Sunnyvale, Calif.). […]

## C=CN1CCCC1=O [1-vinyl-2-pyrrolidinone]
  toxicity to cells of initiator solvent alone: not found to be toxic
